According to patent publication US8431700B2, “Alkylsulfonyl-2,3-dihydrospiro[indene-1,4′-piperidine] analogs as GlyT1 inhibitors, methods for making same, and use of same in treating psychiatric disorders” (Vanderbilt University, priority 2009, dated 2013):

biological target: T1, GlyT1 (Homo sapiens, UniProt P48067); assay: [14C]-glycine uptake in JAR cells endogenously expressing GlyT1 (scintillation proximity assay); format: cell-based; details: 10 μM [14C]-glycine, 3 h, read-out: Potency
T1 construct: Human placental choriocarcinoma cells endogenously expressing GlyT1; host or cells: JAR human placental choriocarcinoma cells
T1 sequence (P48067 1-706): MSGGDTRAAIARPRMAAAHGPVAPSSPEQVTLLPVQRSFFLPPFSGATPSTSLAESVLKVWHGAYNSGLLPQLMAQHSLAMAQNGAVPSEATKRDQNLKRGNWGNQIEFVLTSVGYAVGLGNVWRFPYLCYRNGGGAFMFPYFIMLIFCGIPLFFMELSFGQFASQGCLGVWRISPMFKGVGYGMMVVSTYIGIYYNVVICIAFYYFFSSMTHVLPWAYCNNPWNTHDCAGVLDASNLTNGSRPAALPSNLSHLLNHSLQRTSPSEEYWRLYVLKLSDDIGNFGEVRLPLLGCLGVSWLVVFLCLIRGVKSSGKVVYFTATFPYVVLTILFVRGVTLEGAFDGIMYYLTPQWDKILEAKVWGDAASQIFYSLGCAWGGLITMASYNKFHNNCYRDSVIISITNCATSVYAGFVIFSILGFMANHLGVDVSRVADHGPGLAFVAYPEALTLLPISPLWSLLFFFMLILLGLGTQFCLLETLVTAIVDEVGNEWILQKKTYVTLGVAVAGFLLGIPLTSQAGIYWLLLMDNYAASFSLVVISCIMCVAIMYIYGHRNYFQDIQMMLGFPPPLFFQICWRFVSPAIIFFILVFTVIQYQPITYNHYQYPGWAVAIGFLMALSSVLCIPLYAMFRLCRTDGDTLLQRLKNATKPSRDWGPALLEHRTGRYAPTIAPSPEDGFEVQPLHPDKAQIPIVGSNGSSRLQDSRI
Text: The procedure used was analogous to that disclosed in Williams, J. B.; Mallorga P. J.; Lemaire W.; Williams D. L.; Na S.; Patel S.; Conn J. P.; Pettibone D. J.; Austin C.; Sur C.; “Development of a scintillation proximity assay for analysis of Na+/Cl−-dependent neurotransmitter transporter activity,” ANAL. BIOCHEM. 2003 Oct. 1; 321(1):31-7.
Human placental choriocarcinoma cells (JAR cells, ATCC No. HTB-144) were obtained from the American Type Culture Collection (Manassas, Va.). JAR cells were cultured in 96-well Cytostar T plates (GE Healthcare No. RPNQ0162) in RPMI 1640 medium (Sigma-Aldrich) containing 10% fetal bovine serum, 10 mM HEPES, 1 mM sodium pyruvate, penicillin (100 μg/ml), and streptomycin (100 μg/ml). Cells were plated at a density of 1.3×10^4 cells/well and grown at 37° C. in a humidified atmosphere of 5% CO2 for 40-48 h. Culture medium was removed from the Cytostar T plate and JAR cells were incubated with 30 μl of TB1A buffer (120 mM NaCl, 2 mM KCl, 1 mM CaCl2, 1 mM MgCl2, 10 mM Hepes, 5 mM L-alanine, pH 7.5 adjusted with 1 M Tris base) with or without multiple concentrations of test compound (added at 2× final concentration) for 1 min. Then 30 μl of [^14C]-glycine (Perkin-Elmer) diluted in TB1A was added to each well to give a final concentration of 10 μM. Cytostar T plates were then incubated in the dark at room temperature for 3 h, sealed with opaque white bottom plate seals (Perkin-Elmer) and clear top plate seals (Topseal A, Perkin-Elmer), and were counted on a Top Count (Packard). Glycine uptake was determined by measuring radioactivity in each well and plotted as a function of concentration of test compound. […] Nonspecific uptake of [^14C]-glycine was determined in the presence of 10 mM cold glycine. [^14C]-taurine (American Radiolabeled Chemicals, Inc.) uptake experiments were performed according to the same protocol except that 10 mM cold taurine was used to determine nonspecific uptake. For GlyT2 assays, COS-7 (ATCC No. CRL-1651) cells were utilized. COS-7 cells were transiently transfected with the human GlyT2 cDNA (Origene Technologies Inc., SC303452) using Fugene 6 (Roche) according to the manufacturer's instructions in Dulbecco's modified Eagle's medium (DMEM, Invitrogen) containing 10% Fetal Bovine Serum, 10 mM HEPES, 1 mM sodium pyruvate, penicillin (100 μg/ml), and streptomycin (100 μg/ml). The following day, the cells were plated at a density of 5×10^5 cells/well in Cytostar T plates and maintained at 37° C. in a humidified atmosphere of 5% CO2 for 24 h. GlyT2 glycine uptake experiments were performed according to the same protocol previously described.

Compound | IC50
CCCS(=O)(=O)N1CCC2(CC1)c1ccccc1CC2NC(=O)c1ccccc1OC (centres unmarked) [Compound 5g] | 2700 nM
CC(C)S(=O)(=O)N1CCC2(CC1)c1ccccc1CC2NC(=O)c1ccc(Cl)cc1Cl (centres unmarked) [Compound 2e] | > 10000 nM
CCCS(=O)(=O)N1CCC2(CC1)c1ccccc1CC2NC(=O)c1ccc(Cl)c(Cl)c1 (centres unmarked) [Compound 5c] | 609 nM
Cn1cnc(S(=O)(=O)N2CCC3(CC2)c2ccccc2CC3NC(=O)c2c(F)cccc2F)c1 (centres unmarked) [Compound 4d] | 10 nM
CCCS(=O)(=O)N1CCC2(CC1)c1ccccc1CC2NC(=O)c1ccc(C(F)(F)F)cc1 (centres unmarked) [Compound 5f] | 270 nM
Cn1cnc(S(=O)(=O)N2CCC3(CC2)c2ccccc2CC3NC(=O)c2ccccc2Cl)c1 (centres unmarked) [Compound 4a] | 18 nM
CCS(=O)(=O)N1CCC2(CC1)c1ccccc1CC2NC(=O)c1ccc(Cl)cc1Cl (centres unmarked) [Compound 2b] | > 10000 nM
CCCS(=O)(=O)N1CCC2(CC1)c1ccccc1CC2NC(=O)c1c(F)cccc1F (centres unmarked) [Compound 5b] | 1160 nM
CCCS(=O)(=O)N1CCC2(CC1)c1ccccc1CC2NC(=O)c1ccc(Cl)cc1Cl (centres unmarked) [Compound 7d] | 52 nM
CCCS(=O)(=O)N1CCC2(CC1)c1ccccc1CC2NC(=O)c1ccccc1C(F)(F)F (centres unmarked) [Compound 5d] | 674 nM
CCCS(=O)(=O)N1CCC2(CC1)c1ccccc1CC2NC(=O)c1ccc(Cl)cc1Cl (centres unmarked) [Compound 2c] | 450 nM
CCCCS(=O)(=O)N1CCC2(CC1)c1ccccc1CC2NC(=O)c1ccc(Cl)cc1Cl (centres unmarked) [Compound 2f] | > 10000 nM
Cn1cnc(S(=O)(=O)N2CCC3(CC2)c2ccccc2CC3NC(=O)c2ccc(F)cc2F)c1 (centres unmarked) [Compound 4c] | 18 nM
O=C(NC1Cc2ccccc2C12CCN(S(=O)(=O)c1cccs1)CC2)c1ccc(Cl)cc1Cl (centres unmarked) [Compound 2i] | > 10000 nM
CCCS(=O)(=O)N1CCC2(CC1)c1ccccc1CC2NC(=O)c1ccc(Cl)cc1 (centres unmarked) [Compound 5a] | 1000 nM
Cn1cnc(S(=O)(=O)N2CCC3(CC2)c2ccccc2CC3NC(=O)c2ccc(Cl)c(Cl)c2)c1 (centres unmarked) [Compound 4e] | 53 nM
CS(=O)(=O)N1CCC2(CC1)c1ccccc1CC2NC(=O)c1ccc(Cl)cc1Cl (centres unmarked) [Compound 2a] | > 10000 nM
CCCS(=O)(=O)N1CCC2(CC1)c1ccccc1CC2NC(=O)c1ccc(Cl)cc1Cl (single isomer, unassigned) [Compound 7c] | 1300 nM
Cn1cnc(S(=O)(=O)N2CCC3(CC2)c2ccccc2CC3NC(=O)c2cccc(C(F)(F)F)c2)c1 (centres unmarked) [Compound 4g] | 310 nM
Cn1cnc(S(=O)(=O)N2CCC3(CC2)c2ccccc2CC3NC(=O)c2ccccc2C(F)(F)F)c1 (centres unmarked) [Compound 4f] | 24 nM
CCCS(=O)(=O)N1CCC2(CC1)c1ccccc1CC2NC(=O)c1cccc(C(F)(F)F)c1 (centres unmarked) [Compound 5e] | 1600 nM
Cn1cnc(S(=O)(=O)N2CCC3(CC2)c2ccccc2CC3NC(=O)c2ccc(Cl)cc2)c1 (centres unmarked) [Compound 4b] | 15 nM
CCCS(=O)(=O)N1CCC2(CC1)c1ccccc1CC2NC(=O)c1ccccc1I (centres unmarked) [Compound 5h] | 266 nM
Cn1cnc(S(=O)(=O)N2CCC3(CC2)c2ccccc2CC3NC(=O)c2ccc(Cl)cc2Cl)c1 (centres unmarked) [Compound 7a] | 3500 nM

biological target: T1, GlyT1; assay: Saturation [14C]-glycine uptake in JAR cells to determine mode of inhibition; format: cell-based; details: in the presence of 1 nM NFPS; control Km=28.97 μM; read-out: Km of [14C]-glycine transport
Protocol: To determine the mode of inhibition of GlyT1 inhibitors, a previously published assay for saturation glycine uptake was utilized. Briefly, human placental choriocarcinoma (JAR) cells (ATCC Catalog #HTB-144) were obtained from the American Type Culture Collection (Manassas, Va.). JAR cells were plated at a density of 12,000 cells/well in Cytostar-T 96 well plates (Amersham) in RPMI 1640 Media (Sigma, Catalog #R8758) containing 10 mM HEPES, 1 mM Sodium Pyruvate, 10% fetal bovine serum, 1× Antibiotic/Antimycotic (Invitrogen, Catalog #15240-062), and 4.5 g/L glucose 48 hours prior to the assay. Cell cultures were maintained at 37° C. in an atmosphere of 95% air, 5% CO2. On the day of the assay, culture media was removed, and 30 μL of T1BA buffer (120 mM NaCl, 2 mM KCl, 1 mM CaCl2, 1 mM MgCl2, 10 mM HEPES, 5 mM L-alanine, pH 7.5 using 1M tris base) with or without 2× drug was added to the JAR cells. Plates were incubated for 5 minutes at room temperature, followed by the addition of 30 μL of 2×[^14C]-glycine (111.7 mCi/mmol, obtained from Perkin-Elmer) made up in T1BA Buffer to give final concentrations as indicated. Aliquots of each concentration of [^14C]-glycine were saved in triplicate for direct determination of their concentration via liquid scintillation counting for each assay. Plates were incubated in the dark at room temperature for 3-4 hours and sealed 96-well Cytostar T plates were counted on a Top Count (Perkin-Elmer) with a 1 minute count time per well. Nonspecific uptake was determined in the presence of 10 mM cold glycine. Fixed concentrations of representative compounds and known competitive (ACPPB) and non-competitive inhibitors (NFPS) were included in each assay as comparators.
Data were analyzed by non-linear regression analysis using GraphPad Prism 4.0 (GraphPad, La Jolla, Calif.). Uptake curves were fit to a Michaelis-Menton type equation: V=(Vmax*[S])/(Km+[…]), where V=Velocity in counts per minute (CPM), Vmax=Maximum Velocity in CPM, [S]=Substrate Concentration, and Km is the concentration of substrate to elicit 50% of the Maximal Velocity. Data were additionally plotted as Eadie-Hofstee plots of V versus V/[S] to better visualize the mode of inhibition. […] As an example of the disclosed series of compounds, 9UD was tested side-by-side with known competitive (ACPPB) and non-competitive (NFPS) inhibitors of glycine transport.

Compound | Km
CN(CCC(Oc1ccc(-c2ccccc2)cc1)c1ccc(F)cc1)CC(=O)O (centres unmarked) [NFPS, (N-[3-(4′-fluorophenyl)-3-(4′-phenylphenoxy)propyl])sarcosine] | 30.7 µM

same assay, conditions: in the presence of 1 nM NFPS; control Vmax=16056 CPM

Compound | Vmax of [14C]-glycine transport
CN(CCC(Oc1ccc(-c2ccccc2)cc1)c1ccc(F)cc1)CC(=O)O (centres unmarked) [NFPS, (N-[3-(4′-fluorophenyl)-3-(4′-phenylphenoxy)propyl])sarcosine] | 9298 CPM

same assay, conditions: in the presence of 5 nM ACPPB; control Vmax=20508 CPM

Compound | Vmax of [14C]-glycine transport
CCCS(=O)(=O)N1CCC(c2ccccc2)([C@H](C)NC(=O)c2ccc(Cl)cc2N)CC1 [ACPPB] | 21592 CPM

same assay, conditions: in the presence of 400 nM 9UD; control Vmax=20495 CPM

Compound | Vmax of [14C]-glycine transport
CCCCS(=O)(=O)N1CCC2(CC1)c1ccccc1CC2NC(=O)c1ccc(Cl)cc1Cl (centres unmarked) [Compound 9UD] | 20699 CPM

same assay, conditions: with respect to glycine; Eadie-Hofstee analysis

Compound | Mode of inhibition of GlyT1 glycine transport
CN(CCC(Oc1ccc(-c2ccccc2)cc1)c1ccc(F)cc1)CC(=O)O (centres unmarked) [NFPS, (N-[3-(4′-fluorophenyl)-3-(4′-phenylphenoxy)propyl])sarcosine] | non-competitive inhibition
CCCS(=O)(=O)N1CCC(c2ccccc2)([C@H](C)NC(=O)c2ccc(Cl)cc2N)CC1 [ACPPB] | competitive inhibition
CCCCS(=O)(=O)N1CCC2(CC1)c1ccccc1CC2NC(=O)c1ccc(Cl)cc1Cl (centres unmarked) [Compound 9UD] | competitive inhibition

tested on: GlyT1; assay: not given; details: cited from earlier work

Compound | Duration of increased glycine levels in the prefrontal cortex
CN(CC[C@@H](Oc1ccc(-c2ccccc2)cc1)c1ccc(F)cc1)CC(=O)O [(R)-NFPS] | > 24 h
